Settings: rat; liver microsomes; pH 7.4; 15.0 min; 1.0 µM

Row | half-life [min] | SMILES
1 | 5.49 | Cc1cc(-c2ccc(C)c(S(=O)(=O)NCC3CCN(Cc4ccc(F)cc4)CC3)c2)on1
2 | 5.6 | O=C(Nc1ncnc2sc3c(c12)CCC3)c1ccco1
3 | 7.6 | O=C(c1ccc2c(c1)ncn2-c1ccc(C(F)(F)F)cc1)N1CCCCC1
4 | 10.7 | Cc1ccc(S(=O)(=O)c2cnc(SC(C)C(=O)Nc3ccccc3)[nH]c2=O)cc1 (centres undefined)
5 | 1.07 | CCN(CC)C(=O)N1c2ccccc2C=Cc2ccccc21
6 | > 30 | O=S(=O)(Nc1nccs1)c1ccc(NCc2cccc3cc[nH]c23)cc1
7 | 7.3 | CCOc1ccc(N2CC(c3nc(-c4cc(OC)c(OC)c(OC)c4)no3)CC2=O)cc1 (centres undefined)
8 | > 30 | O=C(Cc1ccc(Cl)c(Cl)c1)Nc1ccc(S(=O)(=O)Nc2cncnc2)cc1
9 | > 30 | CCS(=O)(=O)c1cccc(C(=O)Nc2ccc(-c3nc4ccccc4s3)c(O)c2)c1
10 | > 30 | Cc1ccc(C(N)=O)cc1Nc1nccc(-c2cn(C(C)C)c3cnccc23)n1
11 | > 30 | NCC(=O)Nc1ccc(Cl)cc1C(=O)c1ccc[nH]1
12 | > 30 | O=C(O)c1cnc(-c2ccc(F)cc2)nc1-c1ccncc1
13 | 1.88 | NC(=O)C1CCN(c2nc(-c3cccc(Cl)c3)cs2)CC1
14 | 6.29 | CN(C)C(=O)c1nc(-c2ccc(Cl)cc2Cl)c2cnccn12
15 | 2.7 | CN([C@@H](Cc1ccc(O[S+](=O)([O-])c2cccc3cnccc23)cc1)C(=O)N1CCN(C(=O)OCc2ccccc2)CC1)[S+](=O)([O-])c1cccc2cnccc12
16 | 21.8 | O=C1Nc2cc(Cl)ccc2Nc2cscc21
17 | 7.82 | Cn1c(C(=O)NCCc2ccccn2)nc2nc(-c3ccccc3)c(Cl)cc21
18 | > 30 | Cc1ccnc(NC(=S)N2CCN(c3ccc(C(F)(F)F)cc3)CC2)c1
19 | > 30 | Cc1ccc(-c2cc(C(=O)Nc3ccc(S(C)(=O)=O)cc3)c3ccccc3n2)cc1C
20 | 21.2 | CSc1nc(N)cc(Oc2ccc(-c3nc(Nc4cccc(C(F)(F)F)c4)n[nH]3)cc2)n1
21 | 1.45 | CC1CCN(S(=O)(=O)c2ccc3c(ccc(=O)n3CC(=O)NCc3ccc(Cl)cc3)c2)CC1
22 | 8.4 | Cn1c(CN2CCCC2)nc2cc(NC(=O)COc3ccc(Cl)cc3)ccc21
23 | > 30 | CNC(=O)c1ccc(-c2cnc3cnc(C(=O)N(C)c4ccc(Cl)cc4)cn23)cc1
24 | > 30 | O=C(O)CCNc1cc(N2CCc3ccccc3CC2)nc(-c2cccnc2)n1
25 | 1.72 | Cn1nnnc1SCCCNCc1cccc(OCc2ccccc2Cl)c1

Row | half-life [min] | SMILES
26 | 1 | COC(=O)[C@H](Cc1ccc(O[S+](=O)([O-])c2cccc3cnccc23)cc1)N[S+](=O)([O-])c1ccc2cnccc2c1
27 | > 30 | Cc1ccc(S(=O)(=O)Nc2nc3ccc(C)cc3nc2Nc2ccc3c(c2)OCO3)cc1
28 | > 30 | O=C(Nc1ccc(N2CCN(C(=O)c3ccccc3F)CC2)cc1)c1cncc(Br)c1
29 | 15.7 | COc1ccc(-c2cc(-c3cccc(NC(C)=O)c3)cn3cncc23)cn1
30 | 5.62 | Cc1ccccc1C(C(=O)NC1CCCCC1)N(C(=O)Cn1ccnc1C)c1cccc(F)c1 (centres undefined)
31 | 2.7 | COC(=O)c1ccc(Oc2nc3c(c(=O)n(C)c(=O)n3C)n2CCC(C)C)cc1
32 | 1.87 | O=C(NCCCNc1nc(Nc2cccc(NC(=O)N3CCCC3)c2)ncc1I)c1cccs1
33 | 9.3 | COc1ccc(CNC(=O)c2cnc3ccccc3n2)cc1
34 | > 30 | O=C(Nc1nc(-c2ccccn2)cs1)c1cccc(-n2cnnn2)c1
35 | 21 | Cc1ccnc(NC(=S)N2CCN(c3cc(F)cc(Cl)c3)CC2)c1
36 | 16 | CC(=O)N1CCC2(CCCN(c3ccc(-c4ccccc4)cc3)C2)CC1
37 | > 30 | NC1(c2ccc(NC(=O)c3ccnc(-c4cc(C(=O)O)ccn4)c3)cc2)CC1
38 | 6 | Cc1cccc(NC(=S)N2CCN(c3cccc(C(F)(F)F)c3)CC2)c1
39 | > 30 | O=S(=O)(Nc1ccc(S(=O)(=O)Nc2nccs2)cc1)c1ccc2ccccc2c1
40 | 17.8 | Cc1cc(Oc2ccc(N)cn2)ccc1Cl
41 | 5.86 | COc1ccc(C)cc1NC(=O)c1cnc(-c2ccc(F)cc2)nc1-c1ccncc1
42 | 20 | Fc1ccc(-c2nc(-c3ccncc3)nc3ccccc23)cc1F
43 | 1.4 | COc1ccc(OC)c(-c2nnc3n2N=C(c2c(OC)cccc2OC)CS3)c1
44 | 1 | CCc1ccc(-n2c(=O)c3cccnc3n2CC(=O)Nc2cc(OC)ccc2OC)cc1
45 | 6.59 | COc1ccc(-c2noc([C@@H]3Cc4nc[nH]c4CN3C(=O)NC3CCCCC3)n2)cc1
46 | > 30 | O=[S+]([O-])(Nc1nccs1)c1ccc(NCc2cccc3c2NCC3)cc1
47 | > 30 | Cc1noc(C)c1S(=O)(=O)Nc1cnccc1C(=O)Nc1nc(-c2ccccc2)cs1
48 | 27 | Fc1ccc(Nc2nc(-c3ccnc4ccccc34)nc3ccccc23)cc1F
49 | 3.46 | CC(C)Oc1cccc(C2CC(=O)Nc3cc4c(cc32)OCO4)c1 (centres undefined)
50 | > 30 | Cn1ncnc1[C@H]1c2n[nH]c(=O)c3cc(F)cc(c23)N[C@@H]1c1ccc(F)cc1

Row | half-life [min] | SMILES
51 | 4.2 | Fc1ccc(-c2csc3ncnc(Sc4nnnn4C4CC4)c23)cc1
52 | 9.4 | FC1(F)CCN(c2nc(-c3ccncc3)nc3ccccc23)CC1
53 | 11 | O=C(Nc1nc(-c2ccccc2)cs1)c1ccncc1NS(=O)(=O)c1ccc(F)c(F)c1
54 | 18.4 | COC(=O)Nc1nc2ccc(Sc3ccccc3)cc2[nH]1
55 | 1.6 | Fc1ccc(-c2csc3ncnc(Sc4nnnn4-c4ccccc4)c23)cc1
56 | 2.2 | Cc1cc(-c2nnc3n2CCCCC3)c(C)n1-c1ccc(Br)cc1
57 | 4.83 | CN1C(=O)C(=O)N2C(=C[C@]3(c4c[nH]c5ccccc45)c4ccccc4N[C@H]23)C1=O
58 | 15.7 | Cn1ccc2c(C(=O)NCc3cccnc3)nc(-c3ccc(CO)cc3)cc21
59 | > 30 | COc1ccc(-n2nc(C3CCCN(C(=O)C4CC4)C3)[nH]c2=O)cc1 (centres undefined)
60 | 3.6 | Cc1ccc(N(C)S(=O)(=O)c2ccc(-c3cnc(C4CC4)o3)cc2)cc1
61 | 1.95 | Cc1ccc(NC(=O)N(Cc2cn(C)c3ccccc23)C2CCCCC2)cc1C
62 | > 30 | CN(C)C(=O)NC1CCC(CCN2CCN(c3cccc(Cl)c3Cl)CC2)CC1 (centres undefined)
63 | 14.8 | COCCNCc1ccc(-c2cc3nccc(Oc4ccc(NC(=O)C5(C(=O)Nc6ccc(F)cc6)CC5)cc4F)c3s2)nc1
64 | 2.78 | Cc1nn2c(c1-c1ccccc1-c1ccccc1)N(CC1CC1)CCC2
65 | > 30 | COc1cccc(CNc2ccc(S(=O)(=O)Nc3nccs3)cc2)c1O
66 | 5.8 | Fc1cc(Nc2nc(-c3ccncc3)nc3ccccc23)ccc1N1CCCC1
67 | > 30 | Brc1ccc(-c2csc(N3CCC(c4nn[nH]n4)CC3)n2)cc1
68 | 5.3 | CN(C)c1ccc2cc(C(=O)N[C@@H](CCCN=C(N)CCl)C(=O)NCc3ccccc3)ccc2c1
69 | 28 | CC(=O)c1ccc(N2CCN(S(=O)(=O)c3cc4c(cc3Cl)NC(=O)C4)CC2)cc1
70 | 21.1 | CN(C)c1cccc(-c2cc(N3CCC(C(N)=O)CC3)ncn2)c1
71 | 7.2 | CCc1ccccc1C(=O)N1CCc2cc(-c3nc(NC(=O)Cc4ccc5c(c4)OCO5)sc3C)ccc21
72 | > 30 | NC(CO)(CO)CCc1ccc(Sc2cccc(OCc3ccccc3)c2)cc1Cl
73 | 9.21 | CC(C)c1ccccc1-c1nc(NCc2ccc(-c3cccnc3)cc2)c2ccccc2n1
74 | > 30 | CCOC(=O)N1CCN(C(=O)Cn2sc3nc(C)cc(C)c3c2=O)CC1

From PubChem BioAssay AID1508591
